Experimental data as given in article PMC6022228, “Introducing novel potent anticancer agents of 1H-benzo[f]chromene scaffolds, targeting c-Src kinase enzyme with MDA-MB-231 cell line anti-invasion effect” (Journal of Enzyme Inhibition and Medicinal Chemistry, 2018).
Converted amounts (≈) assume the structure as drawn. “And” between values parts separate entries of the source, which are not always exact repeats. Identical values can stand only once.

Legend:
HepG-2 = assay: MTT viability assay, HepG-2 (liver cancer); type: cell-based; conditions: Homo sapiens, HepG2, 24 h incubation, mean ± standard error
Experimental: (§1) Compounds 4a–h and 6a–h were initially evaluated for in vitro antitumour activity against three different human cell lines: MCF-7, HCT-116, and HepG-2, and only the representative active cytotoxic compounds were further evaluated against the normal HFL-1 cell line. The in vitro cytotoxicity evaluation was performed at the Regional Center for Mycology & Biotechnology (RCMP), Al-Azhar University under different concentrations (50, 25, 12.5, 6.25, 3.125, 1.56, and 0 µg/mL); Vinblastine and Doxorubicin are used as reference cytotoxic compounds. The measurements of cell growth and the in vitro cytotoxicity evaluation were determined using viability assay as described in literature[31–33] and the result was cited in Table 1 and Figure 2.
(§2) The in vitro cytotoxic evaluation of the prepared compounds 4a–h and 6a–h was performed against MCF-7 (breast cancer), HCT-116 (human colon cancer), HepG-2 (liver cancer), and HFL-1(normal fibroblast lung) using the 3-(4,5-dimethylthiazol-2-yl)-2,5-diphenyl tetrazolium bromide (MTT) colorimetric assay as described in literature. […] The results were expressed as growth inhibitory concentration (IC50) values, which represent the compounds’ concentrations required to produce a 50% inhibition of the cell growth after 24 h of incubation, compared to the untreated controls as shown in Table 1 and Figure 2.

HCT-116 = assay: MTT viability assay, HCT-116 (human colon cancer); type: cell-based; conditions: 24 h incubation, mean ± standard error
Experimental: as §1, §2

MCF-7 = assay: MTT viability assay, MCF-7 (breast cancer); type: cell-based; conditions: Homo sapiens, MCF7, 24 h incubation, mean ± standard error
Experimental: as §1, §2

c-Src kinase = biological target: T1, c-Src kinase (Homo sapiens, UniProt P12931); assay: c-Src kinase assay (HTScan Src Kinase Assay Kit); type: biochemical; conditions: GST-Src kinase, triplicate; read-out: Inhibition of c-Src kinase activity, IC50
T1 construct: purchased Cell Signaling Technology (Danvers, MA) 7776
T1 sequence (P12931 whole entry): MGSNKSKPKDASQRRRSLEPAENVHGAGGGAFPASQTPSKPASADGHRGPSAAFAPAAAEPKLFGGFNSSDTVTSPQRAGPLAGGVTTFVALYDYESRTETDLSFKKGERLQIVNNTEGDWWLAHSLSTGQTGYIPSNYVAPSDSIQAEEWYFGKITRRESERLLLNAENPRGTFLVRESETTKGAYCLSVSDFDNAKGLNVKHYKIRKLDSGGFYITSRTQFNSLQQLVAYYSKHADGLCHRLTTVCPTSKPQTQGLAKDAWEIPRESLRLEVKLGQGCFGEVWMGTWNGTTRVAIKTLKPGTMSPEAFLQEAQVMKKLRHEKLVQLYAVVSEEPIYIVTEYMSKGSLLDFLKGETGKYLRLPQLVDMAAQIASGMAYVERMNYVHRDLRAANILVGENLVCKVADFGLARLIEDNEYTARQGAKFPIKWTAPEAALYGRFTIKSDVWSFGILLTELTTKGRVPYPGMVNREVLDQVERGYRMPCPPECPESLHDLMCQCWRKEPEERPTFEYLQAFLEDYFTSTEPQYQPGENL
Experimental: Streptavidin-coated plates were purchased from Pierce (Rockford, IL). […] The reaction mixture was incubated for 30 min at room temperature. The kinase reaction was stopped with the addition of 50 µL of 50 mM EDTA (pH 8.0). […] At the end of the incubation, the wells were washed three times with 200 µL of 0.05% Tween-20 in PBS buffer (PBS/T). After that to each well was added 100 µL of phosphotyrosine antibody (P-Tyr-100) (1:1000 dilution in PBS/T with 1% BSA) and the wells were incubated for another 60 min. After washing three times with 0.05% Tween-20 in PBS/T, the wells were incubated with 100 µL secondary anti-mouse IgG antibody, which was HRP-conjugated (1:500 dilution in PBS/T with 1% BSA) for next 30 min at room temperature. The wells were washed five times with 0.05% Tween-20 in PBS and then were incubated with 100 µL of 3,3′,5,5′-tetramethylbenzidine dihydrochloride substrate for 5 min. […] IC50 values of the compounds were calculated using ORIGIN 6.0 (Origin Lab Corporation, Northampton, MA) software. […] All the experiments were carried out in triplicate.

[1] = tested on: caspases 3/7 in MDA-MB-231 cells; assay: Caspase-Glo 3/7 activity assay; type: cell-based; conditions: Homo sapiens, 24 h treatment, 10 concentrations, read-out: Caspase-Glo 3/7 activity assay, MDA-MB-231 cell line, IC50
Experimental: The Caspase-Glo 3/7 activity assay was performed by Reaction Biology Corporation, One Great Valley Parkway, PA. Examined compounds 4c, 4e, 4h, 6d, and 6e were dissolved in DMSO as 20 mM stock and tested for their ability to Caspase-Glo 3/7 activity assay. […] Caspase-Glo 3/7 activity assay reagent was purchased from Promega (Madison, WI). MDA-MB-231 cell line was provided by ATCC. MDA-MB-231 cell line culture conditions: DMEM with 10% FBS. 100 µg/mL penicillin and 100 µg/mL streptomycin were added to the culture media. Cultures were maintained at 37 °C in a humidified atmosphere of 5% CO2 and 95% air.
Caspases are […] that promote apoptosis. Caspases are vital biochemical features of apoptotic signalling. […] To determine whether the cell growth inhibition in response to the benzochromene derivatives was mediated by apoptosis and was caspase dependent, MDA-MB-231 cells were treated with 10 different concentrations of the target compounds for 24 h.

HFL-1 = assay: MTT viability assay, HFL-1 (normal fibroblast lung); type: cell-based; conditions: Homo sapiens, HFL1, 24 h incubation, normal cell line, mean ± standard error
Experimental: as §1, §2

SMILES | IC50 (HepG-2) | IC50 (HCT-116) | melting point | IC50 (MCF-7) | IC50 (c-Src kinase) | IC50 [1] | IC50 (HFL-1)
COc1ccc2c3c(ccc2c1)OC(N)=C(C#N)C3c1ccc(F)cc1 (stereo not shown) [Compound 6b, 3-Amino-1-(4-flourophenyl)-8-methoxy-1H-benzo[f]chromene-2-carbonitrile] | 0.5 ± 0.01 µg/mL (≈ 1.44 µM) | 4.9 ± 0.01 µg/mL (≈ 14.1 µM) | 256 to 257 °C | 4.4 ± 0.05 µg/mL (≈ 12.7 µM) | – | – | –
COc1ccc2c3c(ccc2c1)OC(N)=C(C#N)C3c1ccc(Cl)cc1 (stereo not shown) [Compound 6c, 3-Amino-1-(4-chlorophenyl)-8-methoxy-1H-benzo[f]chromene-2-carbonitrile] | 0.3 ± 0.08 µg/mL (≈ 0.827 µM) | 2.5 ± 0.97 µg/mL (≈ 6.89 µM) | 247 to 248 °C | 3.1 ± 0.29 µg/mL (≈ 8.54 µM) | – | – | –
COc1ccc2c3c(ccc2c1)OC(N)=C(C#N)C3c1ccc(Br)cc1 (stereo not shown) [Compound 6d, 3-Amino-1-(4-bromophenyl)-8-methoxy-1H-benzo[f]chromene-2-carbonitrile] | 0.7 ± 0.13 µg/mL (≈ 1.72 µM) | 0.9 ± 0.58 µg/mL (≈ 2.21 µM) | 261 to 262 °C | 2 ± 0.25 µg/mL (≈ 4.91 µM) | 214 to 329 nM and 329 nM | 25600 nM | 35.5 ± 0.22 µg/mL (≈ 87.2 µM)
COc1ccc(C2C(C#N)=C(N)Oc3ccc4cc(OC)ccc4c32)cc1 (stereo not shown) [Compound 6f, 3-Amino-8-methoxy-1-(4-methoxyphenyl)-1H-benzo[f]chromene-2-carbonitrile] | 29.3 ± 0.12 µg/mL (≈ 81.8 µM) | 3.8 ± 0.14 µg/mL (≈ 10.6 µM) | 222 to 223 °C | 0.6 ± 0.08 µg/mL (≈ 1.67 µM) | – | – | –
COc1ccc(C2C(C#N)=C(N)Oc3ccc4cc(OC)ccc4c32)c(OC)c1 (stereo not shown) [Compound 6g, 3-Amino-1-(2,4-dimethoxyphenyl)-8-methoxy-1H-benzo[f]chromene-2-carbonitrile] | 9 ± 0.3 µg/mL (≈ 23.2 µM) | 10.9 ± 0.5 µg/mL (≈ 28.1 µM) | 210 to 211 °C | 16 ± 0.92 µg/mL (≈ 41.2 µM) | – | – | –
COc1ccc2c3c(ccc2c1)OC(N)=C(C#N)C3c1ccc(OC)c(OC)c1 (stereo not shown) [Compound 6h, 3-Amino-1-(3,4-dimethoxyphenyl)-8-methoxy-1H-benzo[f]chromene-2-carbonitrile] | 30.7 ± 0.5 µg/mL (≈ 79 µM) | 13.9 ± 0.3 µg/mL (≈ 35.8 µM) | 200 to 201 °C | 41.1 ± 0.25 µg/mL (≈ 106 µM) | – | – | –
COc1cccc2c1C(=O)c1c(O)c3c(c(O)c1C2=O)C[C@@](O)(C(=O)CO)C[C@@H]3O[C@H]1C[C@H](N)[C@H](O)[C@H](C)O1 [Doxorubicin, reference compound] | 0.9 ± 0.04 µg/mL (≈ 1.66 µM) | 0.5 ± 0.015 µg/mL (≈ 0.92 µM) | – | 0.4 ± 0.01 µg/mL (≈ 0.736 µM) | – | – | –
CN[C@@H]1C[C@H]2O[C@@](C)([C@@H]1OC)n1c3ccccc3c3c4c(c5c6ccccc6n2c5c31)C(=O)NC4 [Staurosporine, staurosporine, reference compound] | – | – | – | – | – | 68.5 nM | –
CC[C@]1(O)C[C@@H]2CN(CCc3c([nH]c4ccccc34)[C@@](C(=O)OC)(c3cc4c(cc3OC)N(C)[C@H]3[C@@](O)(C(=O)OC)[C@H](OC(C)=O)[C@]5(CC)C=CCN6CC[C@]43[C@@H]65)C2)C1 [Vinblastine, reference compound] | 4.6 ± 0.01 µg/mL (≈ 5.67 µM) | 2.6 ± 0.08 µg/mL (≈ 3.21 µM) | – | 6.1 ± 0.03 µg/mL (≈ 7.52 µM) | – | – | –
